Data reported in US20200289554A1, “BIOORTHOGONAL COMPOUNDS COMPRISING A PROPARGYL GROUP FOR TREATING CANCER” (THE UNIVERSITY COURT OF THE UNIVERSITY OF EDINBURGH, priority 2016, published 2020).

How the values were obtained:
A549 cells = assay: Prodrug safety dose-response cell viability (PrestoBlue), A549; type: cell-based; conditions: Homo sapiens, 120 h, 5 days, no catalyst
Protocol: These cell lines were selected as these are primary malignancies against which the parental drugs are currently prescribed.
The toxicities of each active agent and prodrugs were compared by performing dose-response studies. […] Cell viability was analysed by fluoresce intensity (λex=540 nm; λem=590 nm) after 60-90 min incubation with PrestoBlue™ Reagent (Life Technologies).

U87G cells = assay: BOOM conversion: prodrug + Pd0-resins in cell culture, cell viability, U87G; type: cell-based, human; conditions: Homo sapiens, 120 h, prodrug in combination with Pd0-resins 0.8 mg/mL, 5 days, read-out: EC50, prodrug + Pd-resins
Protocol: Following 5 days treatment, cells were incubated with PrestoBlue™ Cell Viability Reagent (Life Technologies) for 60-90 min. Fluorescence intensity values were related to the untreated cells (100% cell viability). […] Cells incubated in 0.1% (v/v) DMSO in media were used as untreated cell control.
The toxigenic effect as a result of in situ generation of parental drug in cell culture was determined by incubating all cells in tissue culture media containing 0.1% (v/v) DMSO and a) Pd^0, Au, or Pd/Au-resin (1 mg/mL for all cells tested, negative control); b) prodrug (negative control); or c) Pd^0, Au, or Pd/Au-resin (1 mg/mL for all cells)+prodrug (reaction assay). Cells incubated in 0.1% (v/v) DMSO in media was used as an untreated cell reference standard (100% viability). A PrestoBlue® cell viability assay as described above was carried out and fluorescent intensities compared to the untreated cell control.
A dose response study was performed for each cell line keeping the quantity of Pd^0 resin constant (0.8 mg/mL for U87G and 1 mg/mL for the rest of cell lines). […] Fluorescence intensity values (detected using a PerkinElmer EnVision 2101 multilabel reader with excitation filter at 540 nm and emissions filter at 590 nm) were determined relative to the untreated cell control.

What does the source list for `C#CCOc1ccc(CONC(=O)CCCCCCC(=O)Nc2ccccc2)cc1` [POB-Vor, Propargyloxybenzyl-Vorinostat]?
EC50 (A549 cells): > 500 µM; EC50 (U87G cells): 24.7 µM
